Source: PubChem BioAssay (NCI)
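In this assay, cells in 96-well plates receive the compound at five concentrations for 48 hours. Endpoints are linearly interpolated between the surrounding concentrations. GI50 marks 50% less growth. The concentration for full growth arrest is given as TGI.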

Experiments:
Experiment in all cases: growth of human tumour cells (NCI), 48 h
SNB-19 CNS = system: SNB-19 CNS
786-0 renal = system: 786-0 renal
K-562 leukemia = system: K-562 leukemia
NCI-H226 lung = system: NCI-H226 lung
DU-145 prostate = system: DU-145 prostate
HT29 colon = system: HT29 colon
KM12 colon = system: KM12 colon
HCT-15 colon = system: HCT-15 colon
HCC-2998 colon = system: HCC-2998 colon
CAKI-1 renal = system: CAKI-1 renal

Compound | GI50 (SNB-19 CNS) | TGI (SNB-19 CNS) | GI50 (786-0 renal) | TGI (786-0 renal) | GI50 (K-562 leukemia) | TGI (K-562 leukemia) | GI50 (NCI-H226 lung) | TGI (NCI-H226 lung) | GI50 (DU-145 prostate) | TGI (DU-145 prostate) | GI50 (HT29 colon) | TGI (HT29 colon) | GI50 (KM12 colon) | TGI (KM12 colon) | GI50 (HCT-15 colon) | TGI (HCT-15 colon) | GI50 (HCC-2998 colon) | TGI (HCC-2998 colon) | GI50 (CAKI-1 renal) | TGI (CAKI-1 renal)
Oc1ccc(C2c3ccccc3Oc3ccccc32)c2cccnc12 | 1.85 µM | > 100 µM | 1640 nM | 4.85 µM | 1370 nM | > 100 µM | 1.23 µM | 7.92 µM | 1940 nM | > 100 µM | 1100 nM | > 100 µM | 1.71 µM | > 100 µM | 468 nM | > 100 µM | 1.89 µM | > 100 µM | 568 nM | > 100 µM
CCc1ccc(C(=Nc2ccc(N(C)C(=O)CN3CCN(C)CC3)cc2)c2c(O)[nH]c3ccc(C(=O)OC)cc23)cc1 | 0.775 µM | 2.09 µM | 404 nM | 1.86 µM | 73 nM | 1.12 µM | 0.977 µM | 2.71 µM | 528 nM | 1.84 µM | 247 nM | 3.17 µM | 0.0387 µM | 1.4 µM | 277 nM | 1.25 µM | 0.587 µM | 1.95 µM | 135 nM | 1.48 µM
CN(Cc1cc(Br)cc(Br)c1O)Cc1c(O)ccc2ccccc12 |  | 38.9 µM |  | 36.2 µM |  | 51.9 µM |  | 40.5 µM |  | 40.6 µM |  | 37.8 µM |  | 33.5 µM |  | > 100 µM |  | 37.9 µM |  | 31.5 µM
CN1CCN(c2ccc(NC(=O)c3cncnc3Nc3ccc(OCc4ccccn4)c(Cl)c3)cc2)CC1 | 5.11 µM | 11.8 µM | 763 nM | 1.68 µM | 778 nM | 2.28 µM | 5.42 µM | 13 µM | 4280 nM | 8.8 µM | 948 nM | 4.49 µM | 4.16 µM | 9.63 µM | 961 nM | 3.19 µM | 4.22 µM | 9.15 µM | 4780 nM | 11.7 µM
C=C1C(=O)O[C@H]2[C@H]1CC/C(COC(=O)C(C)c1ccc(CC(C)C)cc1)=C\CC[C@@]1(C)O[C@@H]21 (stereo not given in full) | 1.49 µM | 2.87 µM | 395 nM | 1.65 µM | 359 nM | 1.96 µM | 1.64 µM | 3.52 µM | 1590 nM | 2.95 µM | 1110 nM | 2.59 µM | 1.79 µM | 3.69 µM | 871 nM | 2.37 µM | 1.95 µM | 3.74 µM | 1670 nM | 3.04 µM
O=NNc1ccc(Sc2ccc(NN=O)cn2)nc1 |  | > 100 µM |  | > 100 µM |  | > 100 µM |  | > 100 µM |  | > 100 µM |  | > 100 µM |  | > 100 µM |  | > 100 µM |  | > 100 µM |  | > 100 µM
CCn1c(-c2nonc2N)nc2c(C#CC(C)(C)O)ncc(OC[C@H]3CCCNC3)c21 | 15.1 µM | 42.8 µM | 460 nM | 16 µM | 11400 nM | > 89.2 µM | 21.1 µM | 52.2 µM | 12900 nM | 73.8 µM | 17500 nM | 51.5 µM | 4.54 µM | 63.8 µM | 20300 nM | > 100 µM | 21.2 µM | > 100 µM | 32700 nM | > 100 µM
CC(=O)O[C@H]1[C@@H]2OC(=O)C(CSc3ccccc3)[C@@H]2C[C@H]2O[C@]2(C)CC/C=C(\C)CCC[C@@H]1C (stereo not given in full) | 11.9 µM | 62.8 µM | 2810 nM | 8.29 µM | 2150 nM | > 24.6 µM | 4.69 µM | 18 µM | 2340 nM | 5.6 µM | 3510 nM | 14.9 µM | 3.58 µM | 14 µM | 1950 nM | 6.52 µM | 4.7 µM | 16.3 µM | 1690 nM | 6.34 µM
CCN(CC)C(=S)SCN1C(=O)c2ccccc2S1(=O)=O | 78 µM | > 100 µM | 31400 nM | > 100 µM | 24000 nM | > 100 µM | 65.5 µM | > 100 µM | 29400 nM | > 100 µM | 25100 nM | > 74.9 µM | 14.4 µM | > 100 µM | 50900 nM | > 100 µM | 40.8 µM | > 78 µM | > 70500 nM | > 100 µM
CCOC(=O)c1cc(-c2ccccc2)[nH]c1N/N=C/c1ccc(Cl)cc1 | > 100 µM | > 100 µM | 50400 nM | > 100 µM | 28400 nM | > 100 µM | > 100 µM | > 100 µM | > 100000 nM | > 100 µM | 37300 nM | > 100 µM | > 100 µM | > 100 µM | 49300 nM | > 100 µM | 54.7 µM | > 100 µM | 30900 nM | > 100 µM
